Data on one compound can be found in patent publication EP0502418A1, “Use of levemopamil for the manufacture of a medicament for the treatment of alcohol abuse” (priority 1991, dated 1992).

Data set [1] deals with P rats. Kind of data set: Alcohol and water intake in P rats, three doses of levemopamil (Example 6). Format: in vivo. Here is the method:
Levemopamil and a vehicle were administered in eight P rats obtained from the Indiana Alcohol Research Center at the University of Indiana School of Medicine, as described in Example 5. After establishing a stable baseline for alcohol and water intake, Each animal was injected twice (9:15 and 16:00 hours) with either one of three doses of levemopamil (3.3, 10, and 20 mg/Kg) or an equal volume of the vehicle (a solution of 1 ml absolute ethanol and 4 ml distilled water. Water and alcohol intake were monitored. The amount of alcohol and water intake was recorded twice daily before each administration of vehicle or levemopamil and continued during the drug washout periods.

The test system of data set [2] is alcohol preferring Wistar rats. Kind of data set: Alcohol, water, total fluid and food intake in alcohol preferring (P) rats, single dose level (Example 5). It is filed as in vivo. How it is done:
Levemopamil was administered in eight selectively-bred adult male alcohol preferring Wistar rats (hereinafter "P") obtained from the Indiana Alcohol Research Center at the University of Indiana School of Medicine.
These lines of rats have been developed genetically through selected breeding by Lumeng et al., New strains of rats with alcohol preference and nonpreference. In: Thurman et al., Eds. Alcohol and Aldehyde Metabolizing Systems. Vol. 3. New York: Academic Press, 1977. pp. 537-544. The P rats prefer to drink at least 5g/Kg body weight/day of a 10% (v/v) ethanol solution in a free-choice situation with food and water available. These rats have been widely used as an animal model of alcoholism. See, Tabakoff et al., Biochemical Pharmacology of Alcohol. Meltzer, Ed. In: Psychopharmacology: The Third Generation of Progress. New York: Raven Press, 1978. pp.1521-1526.
The criteria for classification of P rats was that the average daily intake of ethanol (10%v/v) in P rats should be equal or greater than 5g/Kg body weight/day and the ethanol to water intake ratio should be equal or greater than 2:1.
After establishing a stable baseline for alcohol and water intake, Each animal was injected twice (9:30 and 16:30 hours) with a 10 mg/Kg dosage of levemopamil or an equal volume of the vehicle. Water, alcohol and food intake were monitored.

For data set [3] the following is noted: compared with verapamil; cited from earlier work.
For data set [4] the following is noted: in vivo; cited from earlier work.

Structures are written as SMILES.

In the case of `CC(C)C(C#N)(CCCN(C)CCc1ccccc1)c1ccccc1` (centres unmarked) [levemopamil, 2-isopropyl-5-(methylphenethylamino)-2-phenylvaleronitrile], the intake of ethanol entry in data set [1] (10mg/Kg and 20 mg/Kg twice daily over one day, vs vehicle and base-line, Figure 5) was “significantly reduced”. Moreover, the intake of water entry in data set [1] (10mg/Kg and 20 mg/Kg twice daily over one day, vs vehicle and base-line, Figure 6) is “significantly increased”. The “Alcohol intake during the drug washout periods” value in data set [1] (drug washout periods after dosing) is on record as “returned to base-line levels”. Further, the ethanol intake entry in data set [1] (low dose 3.3mg/Kg, injected twice, Figure 5) is reported as “did not induce a significant change”. For the same compound, the water intake entry was “did not induce a significant change” in data set [1] (low dose 3.3mg/Kg, injected twice, Figure 6); “significantly increased” in data set [2] (10 mg/Kg injected twice, vs vehicle and base-line, Figure 2). The “alcohol intake or consumption” value in data set [2] (10 mg/Kg injected twice (9:30 and 16:30 hours), vs baseline and vehicle, Figure 1) is reported as “significantly attenuated”. The food intake entry in data set [2] (10 mg/Kg injected twice, Figure 4) is listed as “unaffected”. Besides, the Total fluid intake result in data set [2] (10 mg/Kg injected twice, vs vehicle and base-line, Figure 3) is reported as “decreased”. Further, the cerebral availability entry in data set [3] is “significantly higher than that of the comparison compound verapamil”. In addition, the “passage of the blood/brain barrier by brain uptake index (BUI)” value in data set [4] is “more rapidly and in considerably larger amounts than does verapamil”.
